Results taken from patent publication US20250268844A1, “ANTICANCER AGENTS BASED ON CYCLOPENTENONES” (UNIVERSITY OF CRETE, priority 2022, published 2025).
“Also recorded” adds a separate entry of the source.

Tests used:
[1] = test system: Caco-2 colorectal carcinoma cells; assay: MTT conversion assay, Caco-2; type: cell-based; settings: Homo sapiens, Caco-2, colon, 48 hrs treatment
Description: (§1) In particular, Enone-1 and Enone-2 were tested for cytotoxic activity in 17 cell lines representing a broad spectrum of human tumors. They include human colorectal carcinoma (Caco2, RKO, HCT15, HT29), liver (HepG2), lung (A549), ovarian carcinoma (A2780, 2780CP, AGE60, SKOV3), anaplastic large cell lymphoma (Mac1 and Mac2a), breast carcinoma (MDA-MB-231), cervical (HeLa), bladder cancer (VM-CUB-1), melanoma (BRO), and multiple myeloma (MR20).
(§2) Each assay was performed in triplicate and repeated in 2-3 independent experiments. Specifically, to measure cell survival, 20 μl of 10 mg/ml MTT (3-([…])-2,5-diphenyl tetrazolium bromide; Sigma) was added to each well and the plates were incubated at 37° C. in 5% CO2 for 3 hours. The supernatant was removed and the formed crystals were dissolved in 200 μl dimethyl sulphoxide. The plates were then analysed at 450 nm on a plate reader. Growth inhibition (reduction in survival) was calculated by expressing the differences in optical densities between treatment wells and control wells as a percentage of the control.

CDT1 = CDT1 RNA levels (qPCR) in A2780 cells; type: cell-based, human; settings: 2.5 μM for 6 or 14 hours
Description: FIG. 4. Effects of Enone-2 on cell cycle and on the expression levels of replication licensing factors (RLF). (A) Representative cell cycle profiles showing progressive accumulation of A2780 ovarian carcinoma cells in the G2/M phase of the cell cycle following 24 hour treatment with 2.5 or 5 μM Enone-2. Quantification of results is shown in the form of pie charts on the right. PI: propidium iodide. (B) & (C) A2780 cells were treated with 2.5 μM Enone-2 for 6 or 14 hours and analyzed for CDC6 protein levels by immunoblot (B), or RNA levels by reverse transcription qPCR (C). The RNA levels of the RLF CDT1 were also measured by qPCR (C). ***P<0.001; **P<0.01.
Replication licensing factors (RLF) such as CDC6, MCM2-MCM7, ORC and CDT1 form origins of DNA replication in the G1 phase of the cell cycle and initiate DNA replication during the S phase. CDC6 is also involved in S-M checkpoint mechanisms that ensure that the entire genome is replicated just once per cell division. Cancer cells frequently display deregulated expression of RLFs; for example, CDC6 is over-expressed in colorectal and ovarian carcinoma and is associated with poor patient prognosis. […] Because of these characteristics, RLFs are considered as novel targets for anti-cancer therapy. […]

[2] = test system: MB49 mouse bladder carcinoma tumors; assay: Subcutaneous MB49 tumor growth in C57BL/6 mice; type: in vivo; settings: C57BL/6 female mice; 5 mg/kg intratumorally on days 7, 10, 14 and 20; vs saline
Description: The in vivo anti-tumor effect of Enones was determined by xenotransplantation of MB49 mouse bladder carcinoma cells in syngeneic, immunocompetent C57BL/6 female mice.
On this basis, the in vivo anti-tumor activity of Enone-2 was tested. Female mice were transplanted subcutaneously with 10^6 MB49 cells which formed tumors of approx. 40-60 mm^2 size by day 7. Mice were randomly separated in 2 groups of 5 animals each and injected intratumorally with 50 μl Enone-2 to achieve 5 mg/kg drug dose on days 7, 10, 14 and 20. The tumor size was monitored using a digital caliper and expressed in mm^2 by multiplying the length (the longest diameter) with the width (the shortest diameter perpendicular to length) of the tumor.

[3] = test system: MDA-MB-231 breast carcinoma cells; assay: MTT conversion assay, MDA-MB-231; type: cell-based, human; settings: Homo sapiens, 48 hrs treatment
Description: as §1, §2

[4] = test system: 2780CP, a cis-platin-resistant derivative of A2780; assay: MTT conversion assay, 2780CP; type: cell-based, human
Description: as §1, §2
Resistance to platinum-based chemotherapy is a major problem in oncology that impacts therapeutic options and limits patient survival. This is relevant to several types of malignancy, including ovarian cancer where platinum resistance frequently occurs. As Enone-1 and 2 show efficacy in reducing survival of A2780 ovarian carcinoma cells, the drugs were also tested in 2780CP, a cis-platin-resistant derivative of A2780 [13].

γH2Ax = γH2Ax immunoblot (DNA damage response marker) in A2780 cells; type: cell-based, human; settings: 6 hrs, increasing concentrations, relative to untreated controls
Description: FIG. 9. […] A2780 cells were cultured for 6 hrs in the presence of drug concentrations as indicated. (B) Effects of siRNA targeting RPL11 (siRPL11), Chek2 (siChek2) or the unrelated luciferase (Luci) genes on RPL11 and Chek2 mRNA levels quantified by RT-PCR. (C) Effects of siRpl11 on Enone-2 and oxaliplatin (OXA)-induced p53 activation. Expression levels relative to GAPDH are indicated; untreated controls (CNT) were given the arbitrary value of 1. […] Expression levels relative to GAPDH are indicated; untreated controls (CNT) were given the arbitrary value of 1.

In the case of C[C@@]1(O)C=CC(=O)[C@H]1c1ccc(F)c2ccccc12 (stereo in doubt) [Enone-2, 5-(4-fluoronaphthalen-1-yl)-4-hydroxy-4-methylcyclopent-2-en-1-one], the IC50 [1] is reported as 1800 nM, the “CDT1 RNA levels” value (CDT1) is reported as “reduce CDT1 RNA levels” and the “subcutaneous tumor growth (tumor size)” value [2] is reported as “arrested tumor growth”. The IC50 [3] was 2500 nM, the IC50 ([4]; Homo sapiens, A2780, 2780CP, ovarian, cis-platin-resistant, 48 hrs treatment, MTT) was 700 nM and the “sensitivity of 2780CP cells compared with cis-platin-sensitive A2780 cells” value ([4]; MTT conversion assays) was “nearly as sensitive; also recorded: remain sensitive”. The “γH2Ax induction (marker of DDR)” value (γH2Ax) was “no effect relative to untreated controls”.
